Experimental data: patent US11292821B2, “Peptides and combination of peptides for use in immunotherapy against lung cancer, including NSCLC, SCLC and other cancers” (Immatics Biotechnologies GmbH, priority 2017, dated 2022)

Tests used:
[1] = tested on: CD8+ T cells; experiment: In vitro T-cell priming assay with aAPCs (in vitro immunogenicity for MHC class I presented peptides); format: cell-based, human; conditions: in vitro immunogenicity, HLA B*08
[2] = tested on: HLA-B*08; experiment: MHC binding assay (UV-ligand exchange, β2m ELISA); parameters: species or system human

| Substance | Wells positive [%] [1] | Peptide exchange (peptide exchange yield, MHC class I binding score) [2] |
| --- | --- | --- |
| 308 (MLKQKVEEL; listed as Homo sapiens) [compound 308] | “+” (<20% = +) | “++++” (>75% = ++++) |
| 307 (ILLPRTVSL; listed as Homo sapiens) [compound 307] | “+” (<20% = +) | “++++” (>75% = ++++) |
| 299 (MAQFKEISL; listed as Homo sapiens) [compound 299] | “++++” (>=70% = ++++) | “++++” (>75% = ++++) |
| 305 (ALKLRVAVL; listed as Homo sapiens) [compound 305] | “+” (<20% = +) | “++++” (>75% = ++++) |
| 311 (EIRIRVVQM; listed as Homo sapiens) [compound 311] | “+” (<20% = +) | “++++” (>75% = ++++) |
| 318 (EAAIRSVEL; listed as Homo sapiens) [compound 318] | “++” (20%-49% = ++) | “++++” (>75% = ++++) |
| 298 (FNKRKPLSL; listed as Homo sapiens) [compound 298] | “+” (<20% = +) | “+++” (>50 = +++) |
| 313 (ELKKKEYEEL; listed as Homo sapiens) [compound 313] | “+” (<20% = +) | “++++” (>75% = ++++) |
| 300 (VASPKHCVL; listed as Homo sapiens) [compound 300] | “+” (<20% = +) | “+++” (>50 = +++) |
| 312 (EAMLRNKEL; listed as Homo sapiens) [compound 312] | “+” (<20% = +) | “++++” (>75% = ++++) |
| 297 (RAQLKLVAL; listed as Homo sapiens) [compound 297] | “+” (<20% = +) | “++++” (>75% = ++++) |
| 306 (ILKVKVGL; listed as Homo sapiens) [compound 306] | “+” (<20% = +) | “++++” (>75% = ++++) |
| 316 (VIKEKALTL; listed as Homo sapiens) [compound 316] | “+” (<20% = +) | “+++” (>50 = +++) |
